From PMC9967956, “Efficacy of Trichoderma longibrachiatum Trichogin GA IV Peptaibol analogs against the Black Rot Pathogen Xanthomonas campestris pv. campestris and other Phytopathogenic Bacteria” (Microorganisms, 2023)
Converted amounts (≈) assume the structure as drawn. Where a SMILES comes first, the peptide text is derived from it. [ ]: non-standard residue; d: D form. The star is where a group is joined. Azidoacetyl = [N-]=[N+]=NCC(=O)*; Leu(ol) = CC(C)C[C@H](N)CO; Octanoyl = CCCCCCCC(=O)*; nOct = not defined here; Aib = CC(C)(N)C(=O)O

Experiments:
[1] = test system: Xanthomonas campestris pv. campestris; assay: MIC and MBC determinations against Xcc; type: cell-based; set-up: key to Bacteriostatic (MIC) / bactericidal (MBC) activity at 0.5 µM / Bacteriostatic (MIC) / bactericidal (MBC) activity at 1 µM / Bacteriostatic (MIC) / bactericidal (MBC) activity at 3 µM / Bacteriostatic (MIC) / bactericidal (MBC) activity at 2 µM: Dashes (-) indicate the absence of bacteriostatic or bactericidal activity; Minimal Inhibitory Concentration (MIC); Minimal Bactericidal Concentration (MBC); MIC and MBC: Minimal Inhibitory Concentration (MIC) and Minimal Bactericidal Concentration (MBC); conditions: for MIC: lowest concentration that completely inhibited visible growth, 72 h, tested 3, 2, 1 and 0.5 µM; for Bacteriostatic (MIC) / bactericidal (MBC) activity at 0.5 µM: peptide 0.5 µM; for Bacteriostatic (MIC) / bactericidal (MBC) activity at 0.5 µM / Bacteriostatic (MIC) / bactericidal (MBC) activity at 1 µM / Bacteriostatic (MIC) / bactericidal (MBC) activity at 2 µM / Bacteriostatic (MIC) / bactericidal (MBC) activity at 3 µM: 72 h growth inhibition, then plating on LBA 24 h; for Bacteriostatic (MIC) / bactericidal (MBC) activity at 1 µM: peptide 1 µM; for Bacteriostatic (MIC) / bactericidal (MBC) activity at 2 µM: peptide 2 µM; for Bacteriostatic (MIC) / bactericidal (MBC) activity at 3 µM: peptide 3 µM
Method: Peptaibols were tested at decreasing concentrations (3, 2, 1 and 0.5 µM). Minimal Bactericidal Concentration (MBC) was determined at the end of the incubation period (72 h) by plating, onto LBA plates, 5 µL samples that were collected from each well with no visible growth.

[2] = test system: Xanthomonas campestris pv. campestris strain RC1; assay: Growth inhibition assay against Xcc (OD600); conditions: LB, 27 °C, 72 h, OD 600 nm, three replicates, two independent experiments
[3] = test system: P. oryzae; conditions: cited from earlier work

| Compound | MIC [1] | Bacteriostatic (MIC) / bactericidal (MBC) activity at 0.5 µM [1] | Bacteriostatic (MIC) / bactericidal (MBC) activity at 1 µM [1] | Inhibition of Xcc growth in vitro ([2]; peptide 3 µM) | Inhibition of Xcc growth in vitro ([2]; peptide 15 µM) | other results |
| --- | --- | --- | --- | --- | --- | --- |
| CCCCCCCC(=O)NC(C)(C)C(=O)N[C@@H](CCCCN)C(=O)N[C@@H](CC(C)C)C(=O)NC(C)(C)C(=O)NCC(=O)NCC(=O)N[C@@H](CC(C)C)C(=O)NC(C)(C)C(=O)NCC(=O)N[C@H](C(=O)N[C@H](CO)CC(C)C)[C@@H](C)CC [Peptide 2] (Octanoyl-[Aib]KL[Aib]GGL[Aib]GI[Leu(ol)]) | 3 µM (≈ 3.41 µg/mL) | - | - | complete inhibition | completely inhibit | Bacteriostatic (MIC) / bactericidal (MBC) activity at 2 µM [1]: -; Bacteriostatic (MIC) / bactericidal (MBC) activity at 3 µM [1]: MIC |
| CCCCCCCC(=O)NC(C)(C)C(=O)N[C@@H](CCCCN)C(=O)N[C@@H](CCCCN)C(=O)N[C@@H](CC(C)C)C(=O)NC(C)(C)C(=O)NCC(=O)N[C@H](C(=O)N[C@H](CO)CC(C)C)[C@@H](C)CC [Peptide 4c] (Octanoyl-[Aib]KKL[Aib]GI[Leu(ol)]) | 3 µM (≈ 2.86 µg/mL) | - | - | confirmed the Xcc growth inhibition detected at 15 µM | completely inhibited | Bacteriostatic (MIC) / bactericidal (MBC) activity at 2 µM [1]: -; Bacteriostatic (MIC) / bactericidal (MBC) activity at 3 µM [1]: MIC |
| CCCCCCCC(=O)NC(C)(C)C(=O)N[C@@H](CCCCN)C(=O)N[C@@H](CC(C)C)C(=O)NC(C)(C)C(=O)N[C@@H](CCCCN)C(=O)NCC(=O)N[C@@H](CC(C)C)C(=O)NC(C)(C)C(=O)N[C@@H](CCCCN)C(=O)N[C@H](C(=O)N[C@@H](CC(C)C)C(N)=O)[C@@H](C)CC [Peptide 5r] (Octanoyl-[Aib]KL[Aib]KGL[Aib]KIL-NH2) | 2 µM (≈ 2.59 µg/mL) | - | - | confirmed the Xcc growth inhibition detected at 15 µM | complete inhibition |  |
| CC[C@H](C)[C@H](NC(=O)[C@H](CCCCN)NC(=O)C(C)(C)NC(=O)[C@H](CC(C)C)NC(=O)[C@H](CCCCN)NC(=O)[C@H](CCCCN)NC(=O)C(C)(C)NC(=O)[C@H](CC(C)C)NC(=O)[C@H](CCCCN)NC(=O)C(C)(C)NC(=O)CN=[N+]=[N-])C(=O)N[C@H](CO)CC(C)C [Peptide 9] (Azidoacetyl-[Aib]KL[Aib]KKL[Aib]KI[Leu(ol)]) | 1 µM (≈ 1.31 µg/mL) | - | MIC | complete inhibition |  |  |
| CCCCCCCC(=O)NC(C)(C)C(=O)N[C@@H](CCCCN)C(=O)N[C@@H](CC(C)C)C(=O)NC(C)(C)C(=O)N[C@@H](CCCCN)C(=O)N[C@@H](CCCCN)C(=O)N[C@@H](CC(C)C)C(=O)NC(C)(C)C(=O)N[C@@H](CCCCN)C(=O)N[C@H](C(=O)N[C@@H](CC(C)C)C(=O)NC(C)(C)C(=O)N[C@@H](CCCCN)C(=O)N[C@@H](CC(C)C)C(=O)NC(C)(C)C(=O)N[C@@H](CCCCN)C(=O)N[C@@H](CCCCN)C(=O)N[C@@H](CC(C)C)C(=O)NC(C)(C)C(=O)N[C@@H](CCCCN)C(=O)N[C@H](C(=O)N[C@H](CO)CC(C)C)[C@@H](C)CC)[C@@H](C)CC [Peptide 10] (Octanoyl-[Aib]KL[Aib]KKL[Aib]KIL[Aib]KL[Aib]KKL[Aib]KI[Leu(ol)]) | 2 µM (≈ 5.14 µg/mL) | - | - | complete inhibition |  |  |
| CCCCCCCC(=O)NC(C)(C)C(=O)NCC(=O)N[C@@H](CC(C)C)C(=O)NC(C)(C)C(=O)NCC(=O)N[C@@H](CCCCN)C(=O)N[C@@H](CC(C)C)C(=O)NC(C)(C)C(=O)NCC(=O)N[C@H](C(=O)N[C@H](CO)CC(C)C)[C@@H](C)CC [Peptide 22] | 2 µM (≈ 2.28 µg/mL) | - | - | complete inhibition |  | Bacteriostatic (MIC) / bactericidal (MBC) activity at 3 µM [1]: - |
| CCCCCCCC(=O)NC(C)(C)C(=O)N[C@@H](CCCCN)C(=O)N[C@@H](CC(C)C)C(=O)NC(C)(C)C(=O)N[C@@H](CCCCN)C(=O)N[C@@H](CCCCN)C(=O)N[C@@H](CC(C)C)C(=O)NC(C)(C)C(=O)N[C@@H](CCCCN)C(=O)N[C@H](C(=O)N[C@H](CO)CC(C)C)[C@@H](C)CC [Peptide 23] (Octanoyl-[Aib]KL[Aib]KKL[Aib]KI[Leu(ol)]) | 1 µM (≈ 1.35 µg/mL) | - |  | complete inhibition |  |  |
| CCCCCCCC(=O)NC(C)(C)C(=O)N[C@@H](CCCCN)C(=O)N[C@@H](CC(C)C)C(=O)NC(C)(C)C(=O)N[C@@H](CCCCN)C(=O)N[C@@H](CCCCN)C(=O)N[C@@H](CC(C)C)C(=O)NC(C)(C)C(=O)NCC(=O)N[C@H](C(=O)N[C@H](CO)CC(C)C)[C@@H](C)CC [Peptide 24] (Octanoyl-[Aib]KL[Aib]KKL[Aib]GI[Leu(ol)]) | 1 µM (≈ 1.28 µg/mL) | - | MIC | complete inhibition |  |  |
| CCCCCCCC(=O)NC(C)(C)C(=O)N[C@@H](CCCCN)C(=O)N[C@@H](CC(C)C)C(=O)NC(C)(C)C(=O)N[C@@H](CCCCN)C(=O)N[C@@H](CCCCN)C(=O)N[C@@H](CC(C)C)C(=O)NC(C)(C)C(=O)NCC(=O)N[C@H](C(=O)N[C@@H](CC(C)C)C(N)=O)[C@@H](C)CC [Peptide 24r] (Octanoyl-[Aib]KL[Aib]KKL[Aib]GIL-NH2) | 1 µM (≈ 1.29 µg/mL) | - | MIC | confirmed the Xcc growth inhibition detected at 15 µM | complete inhibition |  |
| nOct-Aib-Gly-Leu-Aib-Gly-Gly-Leu-Aib-Gly-Ile-Lol [Trichogin GA IV, trichogin GA IV] |  |  |  |  | inactive |  |
| nOct-Aib-Gly-Leu-Aib-Gly-Gly-Leu-Aib-Lys-Ile-Lol [Peptide 25] |  |  |  | did not reduce |  |  |
| nOct-Aib-Gly-Leu-Aib-Gly-Gly-Leu-Api-Gly-Ile-Lol [Peptide 8] |  |  |  | did not reduce |  |  |
| nOct-Aib-Gly-Leu-Aib-Gly-Gly-Leu-Api-Ile-Lol [Peptide 8ApiC] |  |  |  | did not reduce |  |  |
| nOct-Aib-Gly-Leu-Aib-Gly-Lys-Leu-Aib-Gly-Ile-Leu-NH2 [Peptide 22r] |  |  |  |  | complete inhibition |  |
| nOct-Aib-Gly-Leu-Aib-Lys-Aib-Leu-Aib-Gly-Ile-Leu-NH2 [Peptide 6r] |  |  |  |  | weakly effective |  |
| nOct-Aib-Gly-Leu-Aib-Lys-Aib-Leu-Aib-Gly-Ile-Lol [Peptide 6] |  |  |  | partial growth inhibition effect | completely inhibit | Inhibition of P. oryzae [3]: strain-dependent inhibition |
| nOct-Aib-Gly-Leu-Aib-Lys-Gly-Leu-Aib-Gly-Ile-Lol [Peptide 3] | neither bacteriostatic nor bactericidal activity | - | - |  | inactive | Bacteriostatic (MIC) / bactericidal (MBC) activity at 2 µM [1]: -; Bacteriostatic (MIC) / bactericidal (MBC) activity at 3 µM [1]: - |
| nOct-Aib-Gly-Leu-Aib-Lys-Lys-Leu-Aib-Gly-Ile-Lol [Peptide 4] |  |  |  | did not reduce |  |  |
| nOct-Aib-Gly-Leu-Aib-Lys-Lys-Leu-Leu-NH2 (nOct-[Aib]GL[Aib]KKLL-NH2; reading uncertain) [Peptide 4c1] |  |  |  |  | weakly effective |  |
| nOct-Aib-Lys-Leu-Aib-Gly-Gly-Leu-Aib-Gly-Ile-Leu-NH2 [Peptide 2r] |  |  |  |  | complete inhibition |  |
| nOct-Aib-Lys-Leu-Aib-Gly-Lys-Leu-Aib-Gly-Ile-Lol [Peptide 7] |  |  |  | partial growth inhibition effect | completely inhibit |  |
| nOct-Aib-Lys-Leu-Aib-Lys-Gly-Leu-Aib-Gly-Ile-Lol [Peptide 1] |  |  |  | complete inhibition | completely inhibit |  |
| nOct-Aib-Lys-Leu-Aib-Lys-Gly-Leu-Aib-Lys-Ile-Lol [Peptide 5] |  |  |  | did not reduce |  |  |
| nOct-Aib-Lys-Lys-Leu-Aib-Gly-Ile-Leu-NH2 [Peptide 4c2] |  |  |  |  | no inhibitory effect |  |
| nOct-Toac-Gly-Leu-Aib-Gly-Gly-Leu-Aib-Arg-Ile-Lol [Peptide 11] |  |  |  | did not reduce |  |  |
